Test results as given in ChEMBL document CHEMBL1250519, “Design, synthesis, and biological evaluation of halogenated N-(2-(4-oxo-1-phenyl-1,3,8-triazaspiro[4.5]decan-8-yl)ethyl)benzamides: discovery of an isoform-selective small molecule phospholipase D2 inhibitor” (J Med Chem, 2010).
Activity calls are given as the source filed them. The calls are words filed in the database; no cut-off is given here.

Tests used:
[1] = target: Phospholipase D2 (Homo sapiens, UniProt O14939)
Description: Inhibition of human GST-tagged PLD2A in human HEK293 cells

[2] = species: Homo sapiens; experiment: Selectivity ratio of IC50 for human PLD1 to IC50 for human GST-tagged PLD2A
[3] = target: T1, Phospholipase D1 (Homo sapiens, UniProt Q13393)
T1 sequence (Q13393 whole entry): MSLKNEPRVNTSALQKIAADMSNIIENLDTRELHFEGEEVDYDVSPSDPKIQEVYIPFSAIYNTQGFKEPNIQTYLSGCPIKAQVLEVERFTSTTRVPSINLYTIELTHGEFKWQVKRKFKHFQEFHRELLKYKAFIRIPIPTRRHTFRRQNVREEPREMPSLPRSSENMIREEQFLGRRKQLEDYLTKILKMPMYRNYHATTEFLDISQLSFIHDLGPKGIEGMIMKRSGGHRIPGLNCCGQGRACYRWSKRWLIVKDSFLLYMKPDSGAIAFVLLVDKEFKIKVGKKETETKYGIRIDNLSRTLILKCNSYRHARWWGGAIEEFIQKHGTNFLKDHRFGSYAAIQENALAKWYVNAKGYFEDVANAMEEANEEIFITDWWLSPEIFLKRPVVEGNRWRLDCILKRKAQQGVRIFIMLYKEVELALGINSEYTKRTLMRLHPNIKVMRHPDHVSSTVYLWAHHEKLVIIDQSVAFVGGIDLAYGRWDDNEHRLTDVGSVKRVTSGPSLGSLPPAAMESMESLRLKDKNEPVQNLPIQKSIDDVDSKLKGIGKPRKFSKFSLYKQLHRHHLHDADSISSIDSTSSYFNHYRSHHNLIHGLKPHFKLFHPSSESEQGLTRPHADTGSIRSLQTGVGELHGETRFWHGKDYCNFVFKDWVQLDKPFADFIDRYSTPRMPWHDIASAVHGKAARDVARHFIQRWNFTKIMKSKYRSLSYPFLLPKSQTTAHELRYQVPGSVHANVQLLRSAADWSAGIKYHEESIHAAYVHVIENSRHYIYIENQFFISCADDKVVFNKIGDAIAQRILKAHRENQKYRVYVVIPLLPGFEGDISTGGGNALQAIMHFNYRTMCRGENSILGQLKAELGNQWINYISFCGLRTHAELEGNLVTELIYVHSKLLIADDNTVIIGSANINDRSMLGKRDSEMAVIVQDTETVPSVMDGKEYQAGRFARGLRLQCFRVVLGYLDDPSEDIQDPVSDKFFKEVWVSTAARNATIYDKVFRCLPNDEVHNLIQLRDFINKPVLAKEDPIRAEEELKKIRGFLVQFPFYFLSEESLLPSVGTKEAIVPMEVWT
Description: Inhibition of PLD1 in human calu1 cells

[4] = target: T2, Phospholipase D1 (Homo sapiens) (UniProt Q13393); format: cell-based; conditions: MDA-MB-231, 10 uM
T2 sequence (whole entry): T1 sequence (Q13393 whole entry)

Phospholipase D2, sequence (O14939 whole entry): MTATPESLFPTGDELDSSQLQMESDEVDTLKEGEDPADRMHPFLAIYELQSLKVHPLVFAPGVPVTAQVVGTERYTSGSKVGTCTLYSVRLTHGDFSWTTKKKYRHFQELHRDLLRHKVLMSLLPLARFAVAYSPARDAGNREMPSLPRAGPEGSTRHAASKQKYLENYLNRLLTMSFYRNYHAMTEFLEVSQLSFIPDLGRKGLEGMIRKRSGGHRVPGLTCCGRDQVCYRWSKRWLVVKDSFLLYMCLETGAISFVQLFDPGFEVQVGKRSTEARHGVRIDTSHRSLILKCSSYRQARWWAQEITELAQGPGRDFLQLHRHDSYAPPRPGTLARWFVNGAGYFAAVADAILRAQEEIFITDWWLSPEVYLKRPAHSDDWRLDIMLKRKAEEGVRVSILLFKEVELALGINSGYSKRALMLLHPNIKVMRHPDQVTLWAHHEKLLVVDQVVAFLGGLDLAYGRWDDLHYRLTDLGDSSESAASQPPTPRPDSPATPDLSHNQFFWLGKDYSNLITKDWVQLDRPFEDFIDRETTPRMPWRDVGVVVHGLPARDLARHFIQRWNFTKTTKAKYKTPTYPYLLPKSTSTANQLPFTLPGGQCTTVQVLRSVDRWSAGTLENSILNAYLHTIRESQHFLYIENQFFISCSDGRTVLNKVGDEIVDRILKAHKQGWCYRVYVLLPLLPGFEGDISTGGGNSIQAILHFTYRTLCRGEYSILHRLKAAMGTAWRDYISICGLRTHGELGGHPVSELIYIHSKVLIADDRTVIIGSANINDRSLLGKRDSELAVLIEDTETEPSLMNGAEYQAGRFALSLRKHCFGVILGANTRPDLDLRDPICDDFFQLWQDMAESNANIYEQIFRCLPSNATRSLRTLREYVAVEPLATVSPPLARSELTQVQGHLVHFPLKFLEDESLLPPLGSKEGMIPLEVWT

| SMILES | IC50 [1] [nM] | Selectivity ratio [2] | IC50 [3] [nM] | inhibition [4] |
| --- | --- | --- | --- | --- |
| O=C(NCCN1CCC2(CC1)C(=O)NCN2c1ccc(Br)cc1)c1cnc2ccccc2c1 | 360 | 8 | 2700 | – |
| O=C(NCCN1CCC2(CC1)C(=O)NCN2c1cccc(Cl)c1)c1ccc(F)cc1 | 70 | 50 | 3470 | – |
| O=C(NCCN1CCC2(CC1)C(=O)NCN2c1cccc(Cl)c1)c1cnc2ccccc2c1 | 165 | 5 | 870 | – |
| O=C(NCCN1CCC2(CC1)C(=O)NCN2c1cccc(Cl)c1)c1cc2cc(F)ccc2[nH]1 | 73 | 3.4 | 250 | – |
| O=C(NCCN1CCC2(CC1)C(=O)NCN2c1ccc(Cl)cc1)c1cnc2ccccc2c1 | 200 | 17 | 3500 | – |
| O=C(NCCN1CCC2(CC1)C(=O)NCN2c1cccc(F)c1)c1cnc2ccccc2c1 | 63 | 40 | 2500 | – |
| O=C(NCCN1CCC2(CC1)C(=O)NCN2c1ccc(Cl)cc1)c1ccc2ccccc2c1 | 655 | 3.5 | 2270 | – |
| O=C(NCCN1CCC2(CC1)C(=O)NCN2c1ccc(Br)cc1)c1ccc(F)cc1 | 8000 | 1 | 10000 | – |
| O=C(NCCN1CCC2(CC1)C(=O)NCN2c1ccc(F)cc1)c1cc2cc(F)ccc2[nH]1 | 30 | 9 | 290 | – |
| O=C(NCCN1CCC2(CC1)C(=O)NCN2c1ccc(F)cc1)c1ccc2ccccc2c1 | 80 | 21 | 1700 | – |
| C[C@@H](CN1CCC2(CC1)C(=O)NCN2c1cccc(F)c1)NC(=O)c1ccc2ccccc2c1 | 60 | – | 10 | – |
| O=C(NCCN1CCC2(CC1)C(=O)NCN2c1cccc(F)c1)c1ccc(F)cc1 | 6700 | – | – | – |
| O=C(NCCN1CCC2(CC1)C(=O)NCN2c1ccc(Cl)cc1)c1cc2cc(F)ccc2[nH]1 | 50 | 7 | 335 | – |
| O=C(NCCN1CCC2(CC1)C(=O)NCN2c1ccc(F)c(F)c1)c1cnc2ccccc2c1 | 70 | 30 | 2060 | – |
| O=C(NCCN1CCC2(CC1)C(=O)NCN2c1ccc(F)c(F)c1)c1cc2cc(F)ccc2[nH]1 | 100 | 4 | 390 | – |
| C[C@@H](CN1CCC(n2c(=O)[nH]c3cc(Br)ccc32)CC1)NC(=O)[C@H]1C[C@@H]1c1ccccc1 | – | – | – | Active |
| O=C(NCCN1CCC2(CC1)C(=O)NCN2c1cccc(Cl)c1)c1ccc2ccccc2c1 | 290 | 4 | 1200 | – |
| O=C(NCCN1CCC2(CC1)C(=O)NCN2c1cccc(F)c1)c1cc2cc(F)ccc2[nH]1 | 25 | 8 | 210 | – |
| O=C(NCCN1CCC2(CC1)C(=O)NCN2c1ccc(F)cc1)c1cnc2ccccc2c1 | 40 | 50 | 2000 | – |
| O=C(NCCN1CCC2(CC1)C(=O)NCN2c1ccc(Cl)cc1)c1ccc(F)cc1 | 5670 | 1 | 5590 | – |
| O=C(NCCN1CCC2(CC1)C(=O)NCN2c1ccc(F)cc1)c1ccc(F)cc1 | 610 | 23 | 14000 | – |
| O=C(NCCN1CCC2(CC1)C(=O)NCN2c1ccc(Br)cc1)c1ccc2ccccc2c1 | 350 | 17 | 5900 | – |
| O=C(NCCN1CCC2(CC1)C(=O)NCN2c1ccc(Br)cc1)c1cc2cc(F)ccc2[nH]1 | 100 | 27 | 2660 | – |
| O=C(NCCN1CCC2(CC1)C(=O)NCN2c1ccc(F)c(F)c1)c1ccc(F)cc1 | 660 | 9 | 5780 | – |
